Columns and labels:
Assay in all cases: MIC, standard microtiter broth serial dilution test
Type in all cases: cell-based
M. catarrhalis ATCC 0324 = conditions: Moraxella catarrhalis, ATCC0324
[1] = test system: S. aureus Smith ATCC 0329; conditions: Staphylococcus aureus, ATCC0329
S. pneumoniae 0541 = conditions: Streptococcus pneumoniae
S. pyogenes 0542 = conditions: Streptococcus pyogenes
E. faecalis ATCC 0004 = conditions: Enterococcus faecalis, ATCC0004
H. influenzae ATCC 0529 = conditions: Haemophilus influenzae, ATCC0529

SMILES	MIC (M. catarrhalis ATCC 0324) [µg/mL]	MIC [1] [µg/mL]	MIC (S. pneumoniae 0541) [µg/mL]	MIC (S. pyogenes 0542) [µg/mL]	MIC (E. faecalis ATCC 0004) [µg/mL]	MIC (H. influenzae ATCC 0529) [µg/mL]
CC[C@H]1OC(=O)[C@H](C)[C@@H](O[C@H]2C[C@@](C)(OC)[C@@H](OC(=O)CCNCCOCCOCC#Cc3ccc4c(c3)c(=O)c(C(=O)O)cn4CC)[C@H](C)O2)[C@H](C)[C@@H](O[C@@H]2O[C@H](C)C[C@H](N(C)C)[C@H]2O)[C@](C)(O)C[C@@H](C)CN(C)[C@H](C)[C@@H](O)[C@]1(C)O [Example 62, 4″-O-[3-(2-{2-[3-(3-Carboxy-1-ethyl-4-oxo-1,4-dihydro-quinolin-6-yl)-prop-2-ynyloxy]-ethoxy}-ethylamino)-propionyl]-azithromycin]	≤ 2	≤ 1	≤ 1	≤ 1	≤ 1	≤ 2
CC[C@H]1OC(=O)[C@H](C)[C@@H](O[C@H]2C[C@@](C)(OC)[C@@H](OC(=O)CCN3CCN(CCCc4ccc5c(c4)c(=O)c(C(=O)O)cn5CC)CC3)[C@H](C)O2)[C@H](C)[C@@H](O[C@@H]2O[C@H](C)C[C@H](N(C)C)[C@H]2O)[C@](C)(O)C[C@@H](C)CN(C)[C@H](C)[C@@H](OC)[C@]1(C)O [Example 5]	–	≤ 1	≤ 1	≤ 1	≤ 1	–
CC[C@H]1OC(=O)[C@H](C)[C@@H](OC2C[C@@](C)(OC)[C@@H](OC(=O)CNC(=O)CCOCCNc3c(F)cc4c(=O)c(C(=O)O)cn(C5CC5)c4c3OC)[C@H](C)O2)[C@H](C)[C@@H](O[C@@H]2O[C@H](C)C[C@H](N(C)C)[C@H]2O)[C@](C)(O)C[C@@H](C)CN(C)[C@H](C)[C@@H]2OC(=O)O[C@]12C (some centres unmarked) [Example 14, 4″-O-(2-{3-[2-(3-Carboxy-6-fluoro-1-cyclopropyl-8-methoxy-4-oxo-1,4-dihydro-quinolin-7-ylamino)-ethoxy]-propionylamino}-acetyl)-azithromycin 11,12-cyclic carbonate]	≤ 2	≤ 1	≤ 1	≤ 1	≤ 1	≤ 2
CC[C@H]1OC(=O)[C@H](C)[C@@H](OC2C[C@@](C)(OC)[C@@H](OC(=O)CCOCCOCCOc3ccc4c(=O)c(C(=O)O)cn(C5CC5)c4c3)[C@H](C)O2)[C@H](C)[C@@H](O[C@@H]2O[C@H](C)C[C@H](N(C)C)[C@H]2O)[C@](C)(OC)C[C@@H](C)C(=O)[C@H](C)[C@@H](O)[C@]1(C)O (some centres unmarked) [Example 38, 4″-O-(3-{2-[2-(3-Carboxy-1-cyclopropyl-4-oxo-1,4-dihydro-quinolin-7-yloxy)-ethoxy]-ethoxy}-propionyl)-6-O-methyl-erythromycin A]	≤ 2	≤ 1	≤ 1	≤ 1	≤ 1	≤ 2
CC[C@H]1OC(=O)[C@H](C)[C@@H](OC2C[C@@](C)(OC)[C@@H](OC(=O)CCOCCOCCOc3ccc4c(=O)c(C(=O)O)cn(C5CC5)c4c3)[C@H](C)O2)[C@H](C)[C@@H](OC2O[C@H](C)C[C@H](N(C)C)[C@H]2O)[C@](C)(O)C[C@@H](C)CN(C)[C@H](C)[C@@H](O)[C@]1(C)O (some centres unmarked) [Example 35, 4″-O-(3-{2-[2-(3-Carboxy-1-cyclopropyl-4-oxo-1,4-dihydro-quinolin-7-yloxy)-ethoxy]-ethoxy}-propionyl)-azithromycin]	≤ 2	≤ 1	≤ 1	≤ 1	≤ 1	≤ 2
CC[C@H]1OC(=O)[C@H](C)[C@@H](OC2C[C@@](C)(OC)[C@@H](OC(=O)CCNCCOCCCc3ccc4c(c3)c(=O)c(C(=O)O)cn4CC)[C@H](C)O2)[C@H](C)[C@@H](OC2O[C@H](C)C[C@H](N(C)C)[C@H]2O)[C@](C)(O)C[C@@H](C)CN(C)[C@H](C)[C@@H](OC)[C@]1(C)O (some centres unmarked) [Example 24, 11-O-Methyl-4″-O-(3-{2-[3-(3-Carboxy-1-ethyl-4-oxo-1,4-dihydro-quinolin-6-yl)-propoxy]-ethylamino}-propionyl)-azithromycin]	≤ 2	≤ 1	≤ 1	≤ 1	≤ 1	≤ 2
CCOC(=O)c1cn(CC)c2ccc(C#CCN3CCN(CCC(=O)O[C@H]4[C@H](C)OC(O[C@H]5[C@H](C)[C@@H](OC6O[C@H](C)C[C@H](N(C)C)[C@H]6O)[C@](C)(OC)C[C@@H](C)C(=O)[C@H](C)[C@@H](O)[C@](C)(O)[C@@H](CC)OC(=O)[C@@H]5C)C[C@@]4(C)OC)CC3)cc2c1=O (some centres unmarked) [Example 3, 4″-O-(3-{4-[3-(3-Ethoxycarbonyl-1-ethyl-4-oxo-1,4-dihydro-quinolin-6-yl)-prop-2-ynyl]-piperazin-1-yl}-propionyl)-6-O-methyl-erythromycin A]	≤ 2	≤ 1	≤ 1	≤ 1	≤ 1	≤ 2
CC[C@H]1OC(=O)[C@H](C)[C@@H](O[C@H]2C[C@@](C)(OC)[C@@H](OC(=O)CCOCCOCCNc3cc4c(=O)c(C(=O)O)cn(C5CC5)c4cc3Cl)[C@H](C)O2)[C@H](C)[C@@H](O[C@@H]2O[C@H](C)C[C@H](N(C)C)[C@H]2O)[C@](C)(OC)C[C@@H](C)C(=O)[C@H](C)[C@@H](O)[C@]1(C)O [Example 7, 4″-O-(3-{2-[2-(3-Carboxy-7-chloro-1-cyclopropyl-4-oxo-1,4-dihydro-quinolin-6-ylamino)-ethoxy]-ethoxy}-propionyl)-6-O-methyl-erythromycin A]	–	≤ 1	≤ 1	≤ 1	≤ 1	–
CC[C@H]1OC(=O)[C@H](C)[C@@H](OC2C[C@@](C)(OC)[C@@H](OC(=O)CCNCCOCC#Cc3ccc4c(c3)c(=O)c(C(=O)O)cn4CC)[C@H](C)O2)[C@H](C)[C@@H](OC2O[C@H](C)C[C@H](N(C)C)[C@H]2O)[C@](C)(OC)C[C@@H](C)C(=O)[C@H](C)[C@@H](O)[C@]1(C)O (some centres unmarked) [Example 36, 4″-O-(3-{2-[3-(3-carboxy-1-ethyl-4-oxo-1,4-dihydro-quinolin-6-yl)-prop-2-ynyloxy]-ethylamino}-propionyl)-6-O-methyl-erythromycin A]	≤ 2	≤ 1	≤ 1	≤ 1	≤ 1	≤ 2
CC[C@H]1OC(=O)[C@H](C)[C@@H](O[C@H]2C[C@@](C)(OC)[C@@H](OC(=O)CCN3CCN(CC#Cc4ccc5c(c4)c(=O)c(C(=O)O)cn5CC)CC3)[C@H](C)O2)[C@H](C)[C@@H](O[C@@H]2O[C@H](C)C[C@H](N(C)C)[C@H]2O)[C@](C)(O)C[C@@H](C)CN(C)[C@H](C)[C@@H](OC)[C@]1(C)O [Example 4]	≤ 2	≤ 1	≤ 1	≤ 1	≤ 1	≤ 2
CC[C@H]1OC(=O)[C@H](C)[C@@H](OC2C[C@@](C)(OC)[C@@H](OC(=O)CCNCCOCC#Cc3ccc4c(c3)c(=O)c(C(=O)O)cn4CC)[C@H](C)O2)[C@H](C)[C@@H](OC2O[C@H](C)C[C@H](N(C)C)[C@H]2O)[C@](C)(O)C[C@@H](C)CN(C)[C@H](C)[C@@H](OC)[C@]1(C)O (some centres unmarked) [Example 23, 11-O-Methyl-4″-O-(3-{2-[3-(3-Carboxy-1-ethyl-4-oxo-1,4-dihydro-quinolin-6-yl)-prop-2-ynyloxy]-ethylamino}-propionyl)-azithromycin]	≤ 2	≤ 1	≤ 1	≤ 1	≤ 1	≤ 2
CC[C@H]1OC(=O)[C@H](C)[C@@H](O[C@H]2C[C@@](C)(OC)[C@@H](OC(=O)CCOCCOCCNc3cc4c(=O)c(C(=O)O)cn(C5CC5)c4cc3N(C)C)[C@H](C)O2)[C@H](C)[C@@H](OC2O[C@H](C)C[C@H](N(C)C)[C@H]2O)[C@](C)(O)C[C@@H](C)CN(C)[C@H](C)[C@@H](O)[C@]1(C)O (some centres unmarked) [Example 48, 4″-O-(3-{2-[2-(3-Carboxy-1-cyclopropyl-7-dimethylamino-4-oxo-1,4-dihydro-quinolin-6-ylamino)-ethoxy]-ethoxy}-propionyl)azithromycin]	≤ 2	≤ 1	≤ 1	≤ 1	≤ 1	≤ 2
CC[C@H]1OC(=O)[C@H](C)[C@@H](O[C@H]2C[C@@](C)(OC)[C@@H](OC(=O)CCOCCOCCNc3cc4c(cc3F)c(=O)c(C(=O)O)cn4C3CC3)[C@H](C)O2)[C@H](C)[C@@H](O[C@@H]2O[C@H](C)C[C@H](N(C)C)[C@H]2O)[C@](C)(OC)C[C@@H](C)C(=O)[C@H](C)[C@@H](O)[C@]1(C)O [Example 27, 4″-O-(3-{2-[2-(3-Carboxy-6-fluoro-1-cyclopropyl-4-oxo-1,4-dihydro-quinolin-7-ylamino)-ethoxy]-ethoxy}-propionyl)-6-O-methyl-erythromycin A]	≤ 2	≤ 1	≤ 1	≤ 1	≤ 1	≤ 2
CC[C@H]1OC(=O)[C@H](C)[C@@H](O[C@H]2C[C@@](C)(OC)[C@@H](OC(=O)CCOCCOCCNc3cc4c(=O)c(C(=O)O)cn(C5CC5)c4cc3Cl)[C@H](C)O2)[C@H](C)[C@@H](O[C@@H]2O[C@H](C)C[C@H](N(C)C)[C@H]2O)[C@](C)(OC)C[C@@H](C)C(=O)[C@H](C)[C@H]2NC(=O)O[C@@]21C [Example 26, 4″-O-(3-{2-[2-(3-Carboxy-7-chloro-1-cyclopropyl-4-oxo-1,4-dihydro-quinolin-6-ylamino)-ethoxy]-ethoxy}-propionyl)-6-O-methyl-erythromycin A 11,12-cyclic carbamate]	≤ 2	≤ 1	≤ 1	≤ 1	≤ 1	≤ 2

— patent US20080255060A1, “Ester Linked Macrolides Useful For The Treatment of Microbial Infections” (priority 2004, published 2008)
